{
  "source": "ChEMBL document CHEMBL3526034",
  "about": "(Drug Metab Dispos, 2013)",
  "key": {"[1]": {"target": "T1, UDP-glucuronosyltransferase 1A1 (Homo sapiens, UniProt P22309)", "T1 sequence (P22309 whole entry)": "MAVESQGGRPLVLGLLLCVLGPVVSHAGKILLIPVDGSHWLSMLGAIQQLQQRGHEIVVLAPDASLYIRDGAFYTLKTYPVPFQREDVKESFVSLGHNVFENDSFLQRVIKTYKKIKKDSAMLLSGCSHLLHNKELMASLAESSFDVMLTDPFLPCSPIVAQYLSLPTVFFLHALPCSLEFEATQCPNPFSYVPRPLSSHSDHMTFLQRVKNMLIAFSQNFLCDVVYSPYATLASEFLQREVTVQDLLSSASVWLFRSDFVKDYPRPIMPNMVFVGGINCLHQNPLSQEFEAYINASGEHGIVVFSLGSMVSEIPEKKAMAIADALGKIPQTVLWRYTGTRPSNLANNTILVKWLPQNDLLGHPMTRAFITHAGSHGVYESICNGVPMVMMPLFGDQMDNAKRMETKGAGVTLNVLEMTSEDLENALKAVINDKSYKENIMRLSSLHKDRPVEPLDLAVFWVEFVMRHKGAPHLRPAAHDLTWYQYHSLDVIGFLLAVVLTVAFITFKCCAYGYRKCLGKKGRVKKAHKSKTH", "test": "(§1) Drug metabolism assessed as UDPGA-fortified human recombinant UGT1A1-mediated DTG glucuronide metabolite ((2S,3S,4S,5R,6S)-6-((4R,12aS)-9-(2,4-difluorobenzylcarbamoyl)-4-methyl-6,8-dioxo-3,4,6,8,12,12a-hexahydro-2H-[1,3]oxazino[3,2-d]pyrido[1,2-a]pyrazin-7-yloxy)-3,4,5-trihydroxytetrahydro-2H-pyran-2-carboxylic acid) formation at 16 uM after 120 mins by radio-HPLC analysis", "assay_type": "ADME", "conditions": "recombinant enzyme"}, "Liver microsome": {"system": "Liver microsome", "test": "Drug metabolism in NADPH-fortified human liver microsomes assessed as metabolite M3 ((4R,12aS)-N-((3,5-difluorophenyl)(hydroxy)methyl)-7-hydroxy-4-methyl-6,8-dioxo-3,4,6,8,12,12a-hexahydro-2H-[1,3]oxazino[3,2-d]pyrido[1,2-a]pyrazine-9-carboxamide) formation at 5 uM after 120 mins by radio-HPLC analysis", "assay_type": "ADME"}, "Cytochrome P450 2C8": {"target": "T2, Cytochrome P450 2C8 (Homo sapiens, UniProt P10632)", "T2 sequence (P10632 whole entry)": "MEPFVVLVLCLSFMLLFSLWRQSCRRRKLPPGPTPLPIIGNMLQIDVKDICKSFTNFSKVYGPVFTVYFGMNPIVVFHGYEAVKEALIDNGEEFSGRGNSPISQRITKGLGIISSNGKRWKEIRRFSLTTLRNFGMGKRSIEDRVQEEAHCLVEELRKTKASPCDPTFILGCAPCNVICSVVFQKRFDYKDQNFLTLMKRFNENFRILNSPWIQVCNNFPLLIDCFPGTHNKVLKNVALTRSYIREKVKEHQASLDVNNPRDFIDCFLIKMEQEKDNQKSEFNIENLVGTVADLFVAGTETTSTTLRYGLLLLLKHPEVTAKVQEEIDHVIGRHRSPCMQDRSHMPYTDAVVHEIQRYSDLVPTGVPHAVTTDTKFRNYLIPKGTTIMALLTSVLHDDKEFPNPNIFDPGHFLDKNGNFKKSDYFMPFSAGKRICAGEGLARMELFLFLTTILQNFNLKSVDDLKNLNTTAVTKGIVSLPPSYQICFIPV", "test": "Drug metabolism in supersomes expressing human recombinant CYP2C8 assessed as NADPH-fortified enzyme-mediated metabolite formation at 5 uM after 120 mins by radio HPLC analysis", "assay_type": "ADME", "conditions": "2 h"}, "[2]": {"target": "ATP-dependent translocase ABCB1 (Homo sapiens, UniProt P08183)", "sequence (P08183 whole entry)": "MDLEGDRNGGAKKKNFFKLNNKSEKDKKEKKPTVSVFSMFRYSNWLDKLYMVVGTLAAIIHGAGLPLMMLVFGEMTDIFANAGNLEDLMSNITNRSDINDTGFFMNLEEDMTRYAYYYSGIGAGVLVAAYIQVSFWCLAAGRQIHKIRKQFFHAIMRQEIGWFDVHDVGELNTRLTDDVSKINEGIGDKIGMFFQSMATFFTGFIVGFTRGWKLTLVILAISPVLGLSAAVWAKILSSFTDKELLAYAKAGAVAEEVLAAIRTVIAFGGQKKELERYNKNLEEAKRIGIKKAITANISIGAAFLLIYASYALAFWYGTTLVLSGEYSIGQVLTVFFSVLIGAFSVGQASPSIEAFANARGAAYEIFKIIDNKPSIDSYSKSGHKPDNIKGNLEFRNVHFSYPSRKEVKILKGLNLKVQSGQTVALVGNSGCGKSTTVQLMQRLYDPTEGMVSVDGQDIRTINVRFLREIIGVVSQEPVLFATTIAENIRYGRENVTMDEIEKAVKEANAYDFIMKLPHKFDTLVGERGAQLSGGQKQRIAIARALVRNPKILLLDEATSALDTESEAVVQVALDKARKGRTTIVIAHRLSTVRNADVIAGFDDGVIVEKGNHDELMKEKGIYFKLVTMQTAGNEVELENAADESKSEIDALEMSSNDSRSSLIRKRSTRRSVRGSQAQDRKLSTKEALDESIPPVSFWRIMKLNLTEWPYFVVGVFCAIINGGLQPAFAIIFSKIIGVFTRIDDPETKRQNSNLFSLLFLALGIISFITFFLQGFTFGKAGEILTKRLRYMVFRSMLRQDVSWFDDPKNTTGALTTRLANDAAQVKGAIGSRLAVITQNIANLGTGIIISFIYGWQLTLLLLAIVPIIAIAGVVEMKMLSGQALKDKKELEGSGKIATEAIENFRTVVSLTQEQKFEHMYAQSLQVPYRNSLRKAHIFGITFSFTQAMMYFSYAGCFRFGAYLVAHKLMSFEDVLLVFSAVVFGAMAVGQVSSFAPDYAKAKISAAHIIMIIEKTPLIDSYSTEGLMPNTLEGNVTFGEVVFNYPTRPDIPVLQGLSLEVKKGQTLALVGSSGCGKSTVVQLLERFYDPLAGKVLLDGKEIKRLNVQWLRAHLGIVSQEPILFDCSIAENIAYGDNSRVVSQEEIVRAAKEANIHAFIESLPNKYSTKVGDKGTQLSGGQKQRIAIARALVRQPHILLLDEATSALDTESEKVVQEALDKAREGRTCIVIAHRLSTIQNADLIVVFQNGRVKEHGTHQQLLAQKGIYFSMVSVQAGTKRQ", "test": "Inhibition of human MDR1", "assay_type": "ADME"}, "[3]": {"target": "Solute carrier family 22 member 2 (Homo sapiens, UniProt O15244)", "sequence (O15244 whole entry)": "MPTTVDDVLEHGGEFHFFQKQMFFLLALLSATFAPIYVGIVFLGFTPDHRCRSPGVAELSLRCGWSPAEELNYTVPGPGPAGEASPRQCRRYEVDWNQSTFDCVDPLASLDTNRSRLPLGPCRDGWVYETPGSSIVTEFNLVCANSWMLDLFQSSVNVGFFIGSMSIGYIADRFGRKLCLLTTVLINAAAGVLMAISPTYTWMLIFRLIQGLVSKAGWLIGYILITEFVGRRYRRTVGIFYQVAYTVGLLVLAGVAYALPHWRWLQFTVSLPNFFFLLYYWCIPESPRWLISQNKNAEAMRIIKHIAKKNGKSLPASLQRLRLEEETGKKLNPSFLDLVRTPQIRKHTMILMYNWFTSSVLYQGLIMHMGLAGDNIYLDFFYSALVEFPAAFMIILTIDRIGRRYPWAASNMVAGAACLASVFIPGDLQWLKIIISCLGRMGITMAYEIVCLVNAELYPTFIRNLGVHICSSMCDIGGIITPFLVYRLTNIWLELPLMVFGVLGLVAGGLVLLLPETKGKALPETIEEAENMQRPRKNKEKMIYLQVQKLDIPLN", "test": "Inhibition of human OCT2 expressed in MDCK2 cells using [14C]metformin as substrate by liquid scintillation counting analysis", "assay_type": "ADME, cell-based, MDCK-II"}, "BCRP (ABCG2) [4]": {"target": "T3, BCRP (ABCG2) (Homo sapiens, UniProt Q9UNQ0)", "T3 sequence (Q9UNQ0 whole entry)": "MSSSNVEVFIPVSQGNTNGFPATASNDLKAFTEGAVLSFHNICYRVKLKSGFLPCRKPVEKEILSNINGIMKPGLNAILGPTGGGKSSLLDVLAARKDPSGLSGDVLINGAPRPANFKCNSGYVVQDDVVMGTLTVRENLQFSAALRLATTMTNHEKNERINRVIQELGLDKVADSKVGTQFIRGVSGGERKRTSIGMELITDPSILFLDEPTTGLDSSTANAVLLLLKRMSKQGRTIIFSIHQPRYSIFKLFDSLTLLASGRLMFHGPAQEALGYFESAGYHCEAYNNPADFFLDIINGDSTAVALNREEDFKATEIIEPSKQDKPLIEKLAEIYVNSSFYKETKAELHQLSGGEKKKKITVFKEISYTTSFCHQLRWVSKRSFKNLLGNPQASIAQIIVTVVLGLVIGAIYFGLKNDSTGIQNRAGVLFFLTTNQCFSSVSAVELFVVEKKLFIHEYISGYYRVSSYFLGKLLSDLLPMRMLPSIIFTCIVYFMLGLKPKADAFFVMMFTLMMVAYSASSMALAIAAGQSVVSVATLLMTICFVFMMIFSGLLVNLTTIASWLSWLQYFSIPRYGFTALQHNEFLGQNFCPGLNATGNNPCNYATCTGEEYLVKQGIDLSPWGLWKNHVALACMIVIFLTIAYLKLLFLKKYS", "test": "Activity at human BCRP expressed in MDCK2 cells assessed as basolateral to apical mass balance at 3 uM by liquid scintillation counting analysis in presence of 3 uM P-gp and BCRP inhibitor GF120918", "assay_type": "ADME, cell-based, MDCK-II", "conditions": "with GF120918 (P-gp and BCRP inhibitor), read-out: Activity"}, "[5]": {"target": "T1, UDP-glucuronosyltransferase 1A1", "test": "as §1, with “as” for “as UDPGA-fortified”, “M2” for “metabolite”, “formation” for “formation at 16 uM”, “mins measured per mg of protein” for “mins”", "assay_type": "ADME", "conditions": "recombinant enzyme"}, "[6]": {"target": "T4, Broad substrate specificity ATP-binding cassette transporter ABCG2 (Homo sapiens, UniProt Q9UNQ0)", "T4 sequence (Q9UNQ0 whole entry)": "T3 sequence (Q9UNQ0 whole entry)", "test": "Inhibition of human BCRP", "assay_type": "ADME"}, "BCRP (ABCG2) [7]": {"target": "T3, BCRP (ABCG2)", "test": "Activity at human BCRP expressed in MDCK2 cells assessed as apical to basolateral mass balance at 3 uM by liquid scintillation counting analysis in presence of 3 uM P-gp and BCRP inhibitor GF120918", "assay_type": "ADME, cell-based, MDCK-II", "conditions": "with GF120918 (P-gp and BCRP inhibitor), read-out: Activity"}, "Cytochrome P450 2C9": {"target": "Cytochrome P450 2C9 (Homo sapiens, UniProt P11712)", "sequence (P11712 whole entry)": "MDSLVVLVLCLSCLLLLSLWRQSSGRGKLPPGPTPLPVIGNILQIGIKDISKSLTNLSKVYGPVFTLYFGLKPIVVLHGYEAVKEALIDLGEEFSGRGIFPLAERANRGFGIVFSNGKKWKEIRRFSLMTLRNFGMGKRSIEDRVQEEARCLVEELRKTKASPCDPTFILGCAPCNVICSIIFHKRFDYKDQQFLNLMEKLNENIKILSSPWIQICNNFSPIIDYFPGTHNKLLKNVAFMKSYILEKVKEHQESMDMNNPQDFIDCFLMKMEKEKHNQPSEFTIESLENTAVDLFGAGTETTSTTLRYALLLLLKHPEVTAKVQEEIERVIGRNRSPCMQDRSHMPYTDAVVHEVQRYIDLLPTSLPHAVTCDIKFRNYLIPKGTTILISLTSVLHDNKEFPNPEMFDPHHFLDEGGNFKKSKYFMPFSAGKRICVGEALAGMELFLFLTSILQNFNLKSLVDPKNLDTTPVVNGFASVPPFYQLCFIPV", "test": "Metabolism-dependent inhibition of CYP2C9 in human liver microsomes using diclofenac as substrate preincubated for 20 mins with NADPH prior to initiation of reaction with probe substrate by HPLC analysis", "assay_type": "ADME"}},
  "data": [
    {"smiles": "C[C@@H]1CCO[C@H]2Cn3cc(C(=O)NCc4ccc(F)cc4F)c(=O)c(O)c3C(=O)N12", "note": "[DOLUTEGRAVIR]", "values": [
      {"measurement": "Drug metabolism", "setting": "[1]", "result": "metabolite_detected"},
      {"measurement": "Drug metabolism", "setting": "Liver microsome", "result": "metabolite_detected"},
      {"measurement": "Drug metabolism", "setting": "Cytochrome P450 2C8", "result": "metabolite_not_detected"},
      {"measurement": "IC50", "setting": "[2]", "result": "> 90", "unit": "µM"},
      {"measurement": "IC50", "setting": "[3]", "result": 1.9, "unit": "µM"},
      {"measurement": "recovery at 3 µM", "setting": "BCRP (ABCG2) [4]", "result": 76, "unit": "%"},
      {"measurement": "Vmax", "setting": "[5]", "result": 67, "unit": "pmol/min"},
      {"measurement": "IC50", "setting": "[6]", "result": 67, "unit": "µM"},
      {"measurement": "recovery at 3 µM", "setting": "BCRP (ABCG2) [7]", "result": 81, "unit": "%"},
      {"measurement": "IC50", "setting": "Cytochrome P450 2C9", "result": "> 100", "unit": "µM"}
    ]}
  ]
}
